Legend:
Alpha2C = molecular target: T1, Alpha2C (Homo sapiens, UniProt P18825); test: Competitive radioligand binding, Alpha2C; settings: CHO membranes, 3H-rauwolscine 1 nM; for IC50: read-out: pIC50 Alpha2C (converted)
T1 construct: expressed in transfected cells; host or cells: CHO (membrane fraction)
T1 sequence (P18825 1-462): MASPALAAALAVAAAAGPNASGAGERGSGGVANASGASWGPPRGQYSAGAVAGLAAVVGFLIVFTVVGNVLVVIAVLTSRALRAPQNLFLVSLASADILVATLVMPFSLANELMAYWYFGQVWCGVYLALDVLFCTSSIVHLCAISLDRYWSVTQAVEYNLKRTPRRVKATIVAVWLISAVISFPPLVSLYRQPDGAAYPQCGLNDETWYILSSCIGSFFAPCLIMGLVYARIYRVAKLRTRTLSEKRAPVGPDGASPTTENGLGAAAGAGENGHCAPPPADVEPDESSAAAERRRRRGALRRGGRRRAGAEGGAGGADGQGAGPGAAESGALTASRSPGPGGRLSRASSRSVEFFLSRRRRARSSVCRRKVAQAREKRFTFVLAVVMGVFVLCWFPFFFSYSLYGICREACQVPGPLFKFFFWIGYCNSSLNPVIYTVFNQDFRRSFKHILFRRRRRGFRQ
Description: (§1) Competitive radioligand binding assays were used to determine the affinity of the test compounds for a particular receptor. Various concentrations of the non-labelled test compound were added to the incubation mixture with the membrane fraction, containing the receptor of interest, and a fixed low concentration (nM) of the radioligand. During the incubation the radioligand bound to the receptor, but this was inhibited by the non-labelled test compound in proportion to its binding affinity and concentration.
(§2) Cell lines were established that stably express the human variant of the receptor under investigation after transfection with the appropriate cDNA (Table 1). Transfected cells were grown under standard culture conditions, and membrane fractions were obtained upon centrifugation and homogenisation of the cells. Optimal membrane dilutions for binding studies were determined and aliquots were stored at −70° C. until use. In a 96-well plate format, the appropriate radioligand was added to the membrane preparation containing the receptor under investigation. Compound solutions were prepared in DMSO, and diluted 100-fold into the multiwell plate to a final test concentration of 10^−9 to 10^−5 M. After incubation with the test compound, the unbound radioligand was removed by filtration on G/F filters with a Filtermate 96. Microscint™ was added to the washed filter plates and the radioactivity bound to the receptor was measured by liquid scintillation counting in a TopCount (Packard). To measure the Non-Specific Binding (NSB), a high concentration of the non-radiolabeled ligand was added to wells containing the membrane fraction and the radioligand.
(§3) From this, the pIC50 value (inhibitory concentration causing 50% displacement of specific binding) was determined, as well as an estimate of the slope of the plot (Hill coefficient).

Alpha1A = molecular target: T2, Alpha1A (Homo sapiens, UniProt P35348); test: Competitive radioligand binding, Alpha1A; settings: CHO membranes, 3H-prazosin 0.25 nM; read-out: pIC50 Alpha1A (converted)
T2 construct: expressed in transfected cells; host or cells: CHO (membrane fraction)
T2 sequence (P35348 1-466): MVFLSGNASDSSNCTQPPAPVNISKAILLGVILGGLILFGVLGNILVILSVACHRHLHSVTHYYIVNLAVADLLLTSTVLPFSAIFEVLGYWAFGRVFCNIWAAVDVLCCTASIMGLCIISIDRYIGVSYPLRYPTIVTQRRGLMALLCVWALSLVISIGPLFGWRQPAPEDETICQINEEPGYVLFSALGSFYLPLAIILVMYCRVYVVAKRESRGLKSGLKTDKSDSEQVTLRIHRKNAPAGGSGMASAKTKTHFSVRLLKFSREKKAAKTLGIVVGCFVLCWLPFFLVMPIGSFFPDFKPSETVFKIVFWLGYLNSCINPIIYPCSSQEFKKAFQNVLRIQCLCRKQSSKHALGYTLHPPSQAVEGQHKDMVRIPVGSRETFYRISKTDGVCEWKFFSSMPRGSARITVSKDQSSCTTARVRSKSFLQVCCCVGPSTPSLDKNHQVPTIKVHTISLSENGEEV
Description: as §1, §2
(§4) Using in house developed software, a best-fit curve was fitted by a minimum sum of squares method to the plot of % inhibition vs. concentration of the test compound. From this, the pIC50 value (inhibitory concentration causing 50% displacement of specific binding) was determined, as well as an estimate of the slope of the plot (Hill coefficient).

5HT4B = molecular target: T3, 5HT4B (Homo sapiens, UniProt Q13639); test: Competitive radioligand binding, 5HT4B; settings: HEK293 membranes, 3H-GR113808 0.1 nM; for IC50: read-out: pIC50 5HT4B (converted)
T3 construct: expressed in transfected cells; host or cells: HEK293 (membrane fraction)
T3 sequence (Q13639 whole entry): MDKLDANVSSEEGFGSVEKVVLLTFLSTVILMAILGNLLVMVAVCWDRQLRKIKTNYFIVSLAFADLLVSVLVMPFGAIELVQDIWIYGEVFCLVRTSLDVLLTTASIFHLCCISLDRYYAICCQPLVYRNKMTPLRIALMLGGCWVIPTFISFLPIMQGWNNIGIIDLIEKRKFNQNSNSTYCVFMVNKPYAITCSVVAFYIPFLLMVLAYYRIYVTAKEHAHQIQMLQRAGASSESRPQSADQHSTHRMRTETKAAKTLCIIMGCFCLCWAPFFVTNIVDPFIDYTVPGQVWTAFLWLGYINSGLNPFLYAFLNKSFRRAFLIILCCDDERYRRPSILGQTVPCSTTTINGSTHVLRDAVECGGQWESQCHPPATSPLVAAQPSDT
Description: as §1, §2, §3

D2L = molecular target: T4, D2L (Homo sapiens, UniProt P14416); test: Competitive radioligand binding, D2L; settings: CHO membranes, 3H-spiperone 0.2 nM; for IC50: read-out: pIC50 D2L (converted)
T4 construct: expressed in transfected cells; host or cells: CHO (membrane fraction)
T4 sequence (P14416 whole entry): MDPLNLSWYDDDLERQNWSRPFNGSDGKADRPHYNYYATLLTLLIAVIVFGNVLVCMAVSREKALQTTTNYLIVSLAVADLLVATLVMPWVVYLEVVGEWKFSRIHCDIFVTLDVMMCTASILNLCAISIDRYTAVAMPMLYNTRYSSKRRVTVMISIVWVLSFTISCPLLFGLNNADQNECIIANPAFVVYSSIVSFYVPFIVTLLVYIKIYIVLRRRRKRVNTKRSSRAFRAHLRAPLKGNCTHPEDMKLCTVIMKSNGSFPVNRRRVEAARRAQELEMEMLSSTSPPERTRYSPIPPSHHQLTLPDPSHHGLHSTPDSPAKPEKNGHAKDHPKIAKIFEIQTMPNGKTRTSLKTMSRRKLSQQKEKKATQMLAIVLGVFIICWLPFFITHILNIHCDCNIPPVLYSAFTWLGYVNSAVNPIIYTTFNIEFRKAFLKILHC
Description: as §1, §2, §4

Alpha2A = molecular target: T5, Alpha2A (Homo sapiens, UniProt P08913); test: Competitive radioligand binding, Alpha2A; settings: CHO membranes, 3H-rauwolscine 1 nM; for IC50: read-out: pIC50 Alpha2A (converted)
T5 construct: expressed in transfected cells; host or cells: CHO (membrane fraction)
T5 sequence (P08913 1-465): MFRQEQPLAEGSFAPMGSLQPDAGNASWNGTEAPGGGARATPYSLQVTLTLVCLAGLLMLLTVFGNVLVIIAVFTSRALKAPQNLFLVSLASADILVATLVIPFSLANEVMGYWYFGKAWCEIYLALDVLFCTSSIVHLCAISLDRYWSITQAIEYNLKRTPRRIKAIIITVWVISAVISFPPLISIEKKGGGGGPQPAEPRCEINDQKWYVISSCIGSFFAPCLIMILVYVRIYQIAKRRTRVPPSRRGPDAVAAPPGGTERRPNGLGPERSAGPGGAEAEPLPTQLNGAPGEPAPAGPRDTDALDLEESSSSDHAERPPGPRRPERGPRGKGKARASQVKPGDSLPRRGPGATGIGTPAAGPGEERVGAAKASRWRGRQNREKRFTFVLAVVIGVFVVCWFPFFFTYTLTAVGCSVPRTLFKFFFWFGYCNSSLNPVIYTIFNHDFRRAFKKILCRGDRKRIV
Description: as §1, §2

hERG = molecular target: T6, hERG (Homo sapiens, UniProt Q12809); test: Competitive radioligand binding, hERG; settings: HEK293 membranes, 3H-dofetilide 5 nM
T6 construct: expressed in transfected cells; host or cells: HEK293 (membrane fraction)
T6 sequence (Q12809 whole entry): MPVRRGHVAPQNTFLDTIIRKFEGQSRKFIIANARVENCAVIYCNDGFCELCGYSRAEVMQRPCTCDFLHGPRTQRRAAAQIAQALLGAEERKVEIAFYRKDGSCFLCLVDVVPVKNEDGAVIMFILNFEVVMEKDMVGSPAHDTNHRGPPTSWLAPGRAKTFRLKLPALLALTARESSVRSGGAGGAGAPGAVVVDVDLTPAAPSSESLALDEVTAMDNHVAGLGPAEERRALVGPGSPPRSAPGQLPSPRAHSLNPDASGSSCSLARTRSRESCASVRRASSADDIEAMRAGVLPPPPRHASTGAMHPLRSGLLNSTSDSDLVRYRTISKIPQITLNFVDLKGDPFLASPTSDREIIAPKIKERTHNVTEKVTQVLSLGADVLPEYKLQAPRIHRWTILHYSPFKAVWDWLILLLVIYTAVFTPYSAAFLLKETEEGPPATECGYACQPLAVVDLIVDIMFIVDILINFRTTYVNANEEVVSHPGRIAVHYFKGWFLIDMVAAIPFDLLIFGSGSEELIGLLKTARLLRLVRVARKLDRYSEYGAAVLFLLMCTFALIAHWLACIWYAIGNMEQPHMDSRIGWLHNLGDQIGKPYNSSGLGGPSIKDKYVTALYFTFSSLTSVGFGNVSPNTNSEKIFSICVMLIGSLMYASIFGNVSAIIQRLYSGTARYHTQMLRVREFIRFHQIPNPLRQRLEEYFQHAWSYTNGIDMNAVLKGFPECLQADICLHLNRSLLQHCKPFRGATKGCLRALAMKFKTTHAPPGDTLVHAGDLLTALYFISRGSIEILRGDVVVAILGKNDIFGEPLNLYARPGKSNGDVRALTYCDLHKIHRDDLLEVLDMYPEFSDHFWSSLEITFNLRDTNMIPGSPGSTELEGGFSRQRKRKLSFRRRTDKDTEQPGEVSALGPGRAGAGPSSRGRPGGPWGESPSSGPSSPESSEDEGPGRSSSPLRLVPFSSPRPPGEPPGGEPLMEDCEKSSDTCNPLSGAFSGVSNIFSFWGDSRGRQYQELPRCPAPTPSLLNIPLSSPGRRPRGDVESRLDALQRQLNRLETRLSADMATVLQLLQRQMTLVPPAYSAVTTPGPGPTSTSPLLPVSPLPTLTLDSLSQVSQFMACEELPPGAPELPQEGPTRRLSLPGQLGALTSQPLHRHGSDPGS
Description: as §1, §2, §3

5HT2B = 5HT2B (Homo sapiens, UniProt P41595); test: Competitive radioligand binding, 5HT2B; design: expressed in transfected cells; host or cells: CHO (membrane fraction); settings: CHO membranes, 3H-5-HT 4 nM; read-out: pIC50 5HT2B (converted)
Chain of 5HT2B (P41595 whole entry): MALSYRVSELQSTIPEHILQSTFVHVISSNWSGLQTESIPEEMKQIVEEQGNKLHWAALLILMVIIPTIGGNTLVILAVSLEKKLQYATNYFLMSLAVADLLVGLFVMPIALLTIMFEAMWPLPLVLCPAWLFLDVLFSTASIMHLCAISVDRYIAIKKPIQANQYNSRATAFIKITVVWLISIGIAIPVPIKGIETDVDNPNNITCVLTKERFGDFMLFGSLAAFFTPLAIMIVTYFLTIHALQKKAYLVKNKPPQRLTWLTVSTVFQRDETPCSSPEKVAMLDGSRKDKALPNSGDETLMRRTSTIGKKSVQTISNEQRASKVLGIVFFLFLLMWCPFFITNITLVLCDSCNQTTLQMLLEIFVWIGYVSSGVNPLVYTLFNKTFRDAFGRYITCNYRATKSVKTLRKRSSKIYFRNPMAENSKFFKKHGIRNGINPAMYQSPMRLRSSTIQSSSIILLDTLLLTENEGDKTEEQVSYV
Description: as §1, §2, §3

| Structure (SMILES) | IC50 (Alpha2C) [nM] | IC50 (Alpha1A) [nM] | IC50 (5HT4B) [nM] | IC50 (D2L) [nM] | IC50 (Alpha2A) [nM] | IC50 (hERG) [nM] | IC50 (5HT2B) [nM] | pIC50 Alpha2C (Alpha2C) | pIC50 5HT4B (5HT4B) | pIC50 D2L (D2L) | pIC50 Alpha2A (Alpha2A) | pIC50 hERG (hERG) |
| --- | --- | --- | --- | --- | --- | --- | --- | --- | --- | --- | --- | --- |
| COc1cc(N)c(Cl)cc1C(=O)N[C@H]1CCN(CCCOc2ccc(F)cc2)C[C@H]1F (single isomer, unassigned) [(−)-12, cis-4-amino-5-chloro-N-{3-fluoro-1-[3-(4-fluorophenoxy)-propyl]-piperidin-4-yl}-2-methoxybenzamide] | 5890 | 331 | 537 | 4790 | 8130 | 191 | 72.4 | – | – | – | – | – |
| COc1cc(N)c(Cl)cc1C(=O)NC1CCN(CCCOc2ccc(F)cc2)CC1(F)F (single isomer, unassigned) [Compound (−)-17, 4-amino-5-chloro-N-{3,3-difluoro-1-[3-(4-fluorophenoxy)-propyl]-piperidin-4-yl}-2-methoxybenzamide] | – | 7760 | – | – | – | – | 7.24 | <5 | <5 | <5 | <5 | <5 |
| COc1cc(N)c(Cl)cc1C(=O)NC1CCN(CCCOc2ccc(F)cc2)CC1(F)F (racemic) [(±)-17, 4-amino-5-chloro-N-{3,3-difluoro-1-[3-(4-fluorophenoxy)-propyl]-piperidin-4-yl}-2-methoxybenzamide] | > 10000 | > 10000 | > 10000 | 10500 | > 10000 | 7590 | 13.8 | – | – | – | – | – |
| COc1cc(N)c(Cl)cc1C(=O)N[C@H]1CCN(CCCOc2ccc(F)cc2)C[C@H]1F (single isomer, unassigned) [(+)-12, cis-4-amino-5-chloro-N-{3-fluoro-1-[3-(4-fluorophenoxy)-propyl]-piperidin-4-yl}-2-methoxybenzamide] | 1950 | 550 | 126 | – | – | 178 | 148 | – | – | 5.32 | – | – |
| COc1cc(N)c(Cl)cc1C(=O)N[C@@H]1CCN(CCCOc2ccc(F)cc2)C[C@H]1F (single isomer, unassigned) [(−)-7, trans-4-amino-5-chloro-N-{3-fluoro-1-[3-(4-fluorophenoxy)-propyl]-piperidin-4-yl}-2-methoxybenzamide] | 1170 | 398 | 437 | 7940 | 7760 | 316 | 251 | – | – | – | – | – |
| COc1cc(N)c(Cl)cc1C(=O)N[C@@H]1CCN(CCCOc2ccc(F)cc2)C[C@H]1F (racemic) [(±)-7, trans-4-amino-5-chloro-N-{3-fluoro-1-[3-(4-fluorophenoxy)-propyl]-piperidin-4-yl}-2-methoxybenzamide] | 955 | > 10000 | 617 | 4570 | 3630 | 234 | 107 | – | – | – | – | – |
| COc1cc(N)c(Cl)cc1C(=O)N[C@@H]1CCN(CCCOc2ccc(F)cc2)C[C@H]1F (single isomer, unassigned) [(+)-7, trans-4-amino-5-chloro-N-{3-fluoro-1-[3-(4-fluorophenoxy)-propyl]-piperidin-4-yl}-2-methoxybenzamide] | > 10000 | 525 | 871 | 2750 | > 10000 | 288 | 129 | – | – | – | – | – |
| COc1cc(N)c(Cl)cc1C(=O)NC1CCN(CCCOc2ccc(F)cc2)CC1(F)F (single isomer, unassigned; (+)) [(+)-17, 4-amino-5-chloro-N-{3,3-difluoro-1-[3-(4-fluorophenoxy)-propyl]-piperidin-4-yl}-2-methoxybenzamide] | > 10000 | > 10000 | > 10000 | > 10000 | > 10000 | > 10000 | 51.3 | – | – | – | – | – |
| COc1cc(N)c(Cl)cc1C(=O)N[C@H]1CCN(CCCOc2ccc(F)cc2)C[C@H]1F (racemic) [(±)-12, cis-4-amino-5-chloro-N-{3-fluoro-1-[3-(4-fluorophenoxy)-propyl]-piperidin-4-yl}-2-methoxybenzamide] | 2090 | 447 | 115 | 4680 | 4790 | 316 | 66.1 | – | – | – | – | – |

Reference: patent US9139523B2, “5-HT2B receptor antagonists” (Janssen Pharmaceutica, NV, priority 2010, dated 2015)
